Test results from ChEMBL document CHEMBL3734714, “Synthesis and cytostatic activity of 7-arylsulfanyl-7-deazapurine bases and ribonucleosides” (Medchemcomm, 2015).
The source made the active and inactive calls. The calls are words filed in the database; no cut-off is given here.

Tests used:
[1] = Antiviral activity against RSV; type: functional, organism-based
[2] = Cytostatic activity against human CEM/DNR cells after 3 days by MTT assay; type: functional, cell-based; conditions: 72 h
[3] = Cytostatic activity against p53 deficient human HCT116 cells after 3 days by MTT assay; type: functional, cell-based; conditions: HCT-116, 72 h
HeLa S3 = test: Cytostatic activity against human HeLaS3 cells assessed as cell viability after 6 days by XTT assay; type: functional, cell-based; conditions: HeLa S3, 144 h
K562 = test: Cytostatic activity against human K562 cells after 3 days by MTT assay; type: functional, cell-based; conditions: K562, 72 h
BJ = test: Cytostatic activity against human BJ cells after 3 days by MTT assay; type: ADME, cell-based; conditions: 72 h
Candida = test: Antifungal activity against Candida sp.; type: functional, organism-based
[4] = Cytostatic activity against human HCT116 cells after 3 days by MTT assay; type: functional, cell-based; conditions: HCT-116, 72 h
HL-60 = test: Cytostatic activity against human HL60 cells assessed as cell viability after 6 days by XTT assay; type: functional, cell-based; conditions: HL-60, 144 h
[5] = Cytostatic activity against human K562-TAX cells after 3 days by MTT assay; type: functional, cell-based; conditions: 72 h
A549 = test: Cytostatic activity against human A549 cells after 3 days by MTT assay; type: functional, cell-based; conditions: A549, 72 h
Hepatitis C virus [6] = test: Antiviral activity against HCV1B; type: functional, organism-based; conditions: Hepacivirus hominis; genotype 1b
HepG2 = test: Cytostatic activity against human HepG2 cells assessed as cell viability after 6 days by XTT assay; type: functional, cell-based; conditions: HepG2, 144 h
MRC5 = test: Cytostatic activity against human MRC5 cells after 3 days by MTT assay; type: ADME, cell-based; conditions: MRC5, 72 h
Hepatitis C virus [7] = test: Antiviral activity against HCV2A; type: functional, organism-based; conditions: Hepacivirus hominis; genotype 2a
CCRF-CEM = test: Cytostatic activity against human CCRF-CEM cells after 3 days by MTT assay; type: functional, cell-based; conditions: 72 h

| SMILES | Activity [1] | IC50 [2] [µM] | IC50 [3] [µM] | IC50 (HeLa S3) [µM] | IC50 (K562) [µM] | IC50 (BJ) [µM] | Activity (Candida) | IC50 [4] [µM] | IC50 (HL-60) [µM] | IC50 [5] [µM] | IC50 (A549) [µM] | Activity (Hepatitis C virus [6]) | IC50 (HepG2) [µM] | IC50 (MRC5) [µM] | Activity (Hepatitis C virus [7]) | IC50 (CCRF-CEM) [µM] |
| --- | --- | --- | --- | --- | --- | --- | --- | --- | --- | --- | --- | --- | --- | --- | --- | --- |
| Nc1ncnc2[nH]cc(Sc3cccs3)c12 | inactive | 20.3 | > 50 | 17.9 | 17.9 | > 150 | inactive | 22.8 | 13.9 | 17.9 | 22.8 | inactive | > 25 | 136 | inactive | 16.7 |
| c1coc(-c2ncnc3[nH]cc(Sc4cccs4)c23)c1 | inactive | 20.8 | 19.5 | 8.49 | 4.26 | 22.1 | inactive | 6.75 | 7.63 | 18.9 | 11.4 | inactive | > 25 | 32.9 | inactive | 7.73 |
| Cc1ncnc2[nH]cc(Sc3cccs3)c12 | inactive | > 50 | 29.1 | > 25 | 14 | > 150 | inactive | 38.1 | > 25 | 64.6 | > 50 | inactive | > 25 | 136 | inactive | > 50 |
| Nc1ncnc2c1c(Sc1ccccc1)cn2[C@@H]1O[C@H](CO)[C@@H](O)[C@H]1O | inactive | > 50 | 22.4 | > 25 | 23.1 | 67.9 | inactive | 20.8 | > 25 | 29.6 | 22.9 | inactive | > 25 | 67.7 | inactive | 34 |
| c1csc(Sc2c[nH]c3ncnc(-c4cccs4)c23)c1 | inactive | 17.7 | 5.06 | > 25 | 5.14 | 23.4 | inactive | 13 | 21.1 | 21.7 | 16.2 | inactive | > 25 | 54.5 | inactive | 10.6 |
| Nc1ncnc2c1c(Sc1cccs1)cn2[C@@H]1O[C@H](CO)[C@@H](O)[C@H]1O | inactive | > 100 | 23.2 | > 25 | 23.4 | 93.6 | inactive | 36.7 | > 25 | 55.8 | 43.8 | inactive | > 25 | 138 | inactive | 64.7 |
| CN(C)c1ncnc2[nH]cc(Sc3cccs3)c12 | inactive | 35.2 | 27.5 | > 25 | 3.83 | 145 | inactive | 11 | > 25 | 22.1 | 19.8 | inactive | > 25 | > 150 | inactive | 14.6 |
| CNc1ncnc2[nH]cc(Sc3cccs3)c12 | inactive | 26.2 | 45.3 | 17.6 | 4.95 | 132 | inactive | 19 | 13.5 | 21 | 28.6 | inactive | > 25 | 148 | inactive | 14.7 |
| COc1ncnc2[nH]cc(Sc3cccs3)c12 | inactive | > 50 | > 50 | 23.9 | > 50 | 123 | inactive | 17.2 | > 25 | 44 | 21.5 | inactive | > 25 | 148 | inactive | 18.2 |
